This note sets out measurements from patent publication US20250302815A1, “PROTEIN TYROSINE PHOSPHATASE TARGETING LIGANDS” (CALICO LIFE SCIENCES LLC, priority 2021, published 2025).

A value given as a limit tells only on which side of the number the result lay.

One assay addresses T1, PTPN2 (B16F10.4 cells) (Mus musculus, UniProt Q06180).
T1 construct: HiBiT; host or cells: B16F10.4
T1 sequence (Q06180 1-406): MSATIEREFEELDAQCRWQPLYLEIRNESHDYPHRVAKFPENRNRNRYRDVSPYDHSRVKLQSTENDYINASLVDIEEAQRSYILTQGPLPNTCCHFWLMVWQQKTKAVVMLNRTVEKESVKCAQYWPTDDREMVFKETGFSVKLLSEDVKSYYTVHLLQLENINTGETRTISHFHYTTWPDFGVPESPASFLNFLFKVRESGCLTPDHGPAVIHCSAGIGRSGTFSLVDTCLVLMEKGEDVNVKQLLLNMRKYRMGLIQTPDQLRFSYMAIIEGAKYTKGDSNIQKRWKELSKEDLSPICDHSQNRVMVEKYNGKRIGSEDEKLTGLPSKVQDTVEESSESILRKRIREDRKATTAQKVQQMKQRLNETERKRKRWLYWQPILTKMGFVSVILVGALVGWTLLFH
The experiment in a line: HiBiT Degradation B16F10.4 PTPN2. It is filed as cell-based. Conditions: 24.0 hours. In general terms: HiBiT is a short tag that completes a luciferase, so light tracks the accessible tagged protein.

Assay [1] has as its target T2, PTPN2 (HiBIT-PTPN2 in 293T.109 cells) (Homo sapiens, UniProt P17706).
T2 construct: expressed in transfected cells; host or cells: 293T.109 (293T WT from ATCC)
T2 sequence (P17706 1-415): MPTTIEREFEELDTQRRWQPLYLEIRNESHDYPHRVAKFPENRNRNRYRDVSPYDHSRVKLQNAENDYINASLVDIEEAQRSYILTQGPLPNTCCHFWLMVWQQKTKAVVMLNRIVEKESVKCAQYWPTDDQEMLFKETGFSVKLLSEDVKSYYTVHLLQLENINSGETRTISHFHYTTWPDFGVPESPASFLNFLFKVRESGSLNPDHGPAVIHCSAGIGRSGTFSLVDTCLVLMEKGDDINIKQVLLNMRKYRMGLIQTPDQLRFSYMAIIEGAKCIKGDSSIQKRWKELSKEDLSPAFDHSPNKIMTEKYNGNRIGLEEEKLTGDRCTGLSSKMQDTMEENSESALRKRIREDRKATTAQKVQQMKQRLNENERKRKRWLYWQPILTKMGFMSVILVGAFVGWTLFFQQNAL
Put plainly: HiBiT Degradation 293T.109 PTPN2 (Nano-Glo HiBiT Lytic Assay). The assay is classed as cell-based. The following applies: 24.0 hours. A digest of the protocol:
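293T.109 cells with ectopic N-terminal HiBiT-tagged PTPN2 (5000/well) exposed to compounds for 24 h at 37 °C, 5% CO2; 11-point half-log titration from 10 μM top, duplicates. Remaining HiBiT-PTPN2 read as luminescence with Nano-Glo HiBiT lytic reagent, normalised to untreated cells (0%) and reagent-free wells.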

As usually defined, the DC50 is the concentration at which degradation of the target reaches its halfway point. Lower therefore signals a more potent degrader. For `Cn1c(=O)n(C2CCC(=O)NC2=O)c2ccc(-c3ccc(NC(=O)Nc4cccc(CS(=O)(=O)N5CC[C@H](Nc6cccc(-c7sc(C(=O)O)c(OCC(=O)O)c7Cl)c6)CC5(C)C)c4)cc3)cc21` (stereo partly drawn) [Example 145, 3-(carboxymethoxy)-4-chloro-5-(3-(((4S)-1-((3-(3-(4-(1-(2,6-dioxopiperidin-3-yl)-3-methyl-2-oxo-2,3-dihydro-1H-benzo[d]imidazol-5-yl)phenyl)ureido)benzyl)sulfonyl)-2,2-dimethylpiperidin-4-yl)amino)phenyl)thiophene-2-carboxylic acid], the half-maximal degradation concentration (DC50) (on PTPN2 (B16F10.4 cells); in assay [1]) was 50 to 200 nM throughout.

Regarding `CC1(C)C[C@@H](Nc2cccc(-c3sc(C(=O)O)c(OCC(=O)O)c3Cl)c2)CCN1S(=O)(=O)Cc1cccc(N2CCN(CCCc3ccc4c5c(cccc35)C(=O)N4C3CCC(=O)NC3=O)C2=O)c1` (stereo partly shown) [Example 202], the DC50 at PTPN2 (B16F10.4 cells) fell in the range of 50 to 200 nM; in assay [1], 200 to 1000 nM.

Turning to `CC1(C)C[C@@H](Nc2cccc(-c3sc(C(=O)O)c(OCC(=O)O)c3Cl)c2)CCN1S(=O)(=O)Cc1cccc(NC(=O)N2CCC(c3ccc4c(c3)oc(=O)n4C3CCC(=O)NC3=O)CC2)c1` (stereo partly drawn) [Example 68, 3-(carboxymethoxy)-4-chloro-5-[3-[[(4S)-1-[[3-[[4-[3-(2,6-dioxo-3-piperidyl)-2-oxo-1,3-benzoxazol-6-yl]piperidine-1-carbonyl]amino]phenyl]methylsulfonyl]-2,2-dimethyl-4-piperidyl]amino]phenyl]thiophene-2-carboxylic acid], the DC50 (at PTPN2 (B16F10.4 cells); in assay [1]) was 50 to 200 nM each time.

Turning to `CC1(C)C[C@@H](Nc2cccc(-c3sc(C(=O)O)c(OCC(=O)O)c3Cl)c2)CCN1S(=O)(=O)Cc1cccc(NC(=O)CCCCCn2cc(CNc3cccc4c3C(=O)N(C3CCC(=O)NC3=O)C4=O)nn2)c1` (stereo partly drawn) [Example 12, 3-(carboxymethoxy)-4-chloro-5-(3-(((4S)-1-((3-(6-(4-(((2-(2,6-dioxopiperidin-3-yl)-1,3-dioxoisoindolin-4-yl)amino)methyl)-1H-1,2,3-triazol-1-yl)hexanamido)benzyl)sulfonyl)-2,2-dimethylpiperidin-4-yl)amino)phenyl)thiophene-2-carboxylic acid], the DC50 (at PTPN2 (B16F10.4 cells); in assay [1]) was 200 to 1000 nM each time.

With `Cn1c(=O)n(C2CCC(=O)NC2=O)c2ccc(C3CCN(C(=O)Nc4cc(CS(=O)(=O)N5CC[C@H](Nc6cccc(-c7sc(C(=O)O)c(OCC(=O)O)c7Cl)c6)CC5(C)C)ccc4F)CC3)cc21` (stereo partly drawn) [Example 119, 3-(carboxymethoxy)-4-chloro-5-[3-[[(4S)-1-[[3-[[4-[1-(2,6-dioxo-3-piperidyl)-3-methyl-2-oxo-benzimidazol-5-yl]piperidine-1-carbonyl]amino]-4-fluoro-phenyl]methylsulfonyl]-2,2-dimethyl-4-piperidyl]amino]phenyl]thiophene-2-carboxylic acid], the DC50 (at PTPN2 (B16F10.4 cells); in assay [1]) was 50 to 200 nM throughout.

For the compound `CN(C(=O)C1CCN(C(=O)CNc2cccc3c2CN(C2CCC(=O)NC2=O)C3=O)CC1)c1cccc(CS(=O)(=O)N2CC[C@H](Nc3cccc(-c4sc(C(=O)O)c(OCC(=O)O)c4Cl)c3)CC2(C)C)c1` (stereo partly drawn) [Example 67, 3-(carboxymethoxy)-4-chloro-5-(3-(((4S)-1-((3-(1-((2-(2,6-dioxopiperidin-3-yl)-1-oxoisoindolin-4-yl)glycyl)-N-methylpiperidine-4-carboxamido)benzyl)sulfonyl)-2,2-dimethylpiperidin-4-yl)amino)phenyl)thiophene-2-carboxylic acid], the DC50 on PTPN2 (B16F10.4 cells) was ≥ 1000 nM; in assay [1], 200 to 1000 nM.

Consider `Cn1c(=O)n(C2CCC(=O)NC2=O)c2ccc([C@@H]3CCN(C(=O)Nc4cccc(CS(=O)(=O)N5CC[C@H](Nc6cccc(-c7sc(C(=O)O)c(OCC(=O)O)c7Cl)c6)CC5(C)C)c4)C[C@@H]3F)cc21` (stereo in doubt) [Example 172], for which the DC50 (on PTPN2 (B16F10.4 cells); in assay [1]) was < 50 nM in each case.

On to `CC1(C)C[C@@H](Nc2cccc(-c3sc(C(=O)O)c(OCC(=O)O)c3Cl)c2)CCN1S(=O)(=O)Cc1cccc(NC(=O)CCN2CCC(Nc3cccc4c3CN(C3CCC(=O)NC3=O)C4=O)CC2)c1` (stereo partly drawn) [Example 46, 3-(carboxymethoxy)-4-chloro-5-(3-(((4S)-1-((3-(3-(4-((2-(2,6-dioxopiperidin-3-yl)-1-oxoisoindolin-4-yl)amino)piperidin-1-yl)propanamido)benzyl)sulfonyl)-2,2-dimethylpiperidin-4-yl)amino)phenyl)thiophene-2-carboxylic acid], for which the DC50 on PTPN2 (B16F10.4 cells) is 200 to 1000 nM; in assay [1], < 50 nM.

In the case of `Cn1c(=O)n(C2CCC(=O)NC2=O)c2cccc(CCC(=O)Nc3cccc(CS(=O)(=O)N4CCC(Nc5cccc(-c6sc(C(=O)O)c(OCC(=O)O)c6Cl)c5)CC4)c3)c21` (stereo not shown) [Example 53], the 50% degradation concentration (DC50) at PTPN2 (B16F10.4 cells) is 200 to 1000 nM; in assay [1], 50 to 200 nM.

In the case of `Cn1c(=O)n(C2CCC(=O)NC2=O)c2ccc(N3CCC(O)(CC(=O)Nc4cccc(CS(=O)(=O)N5CC[C@@H](Nc6cccc(-c7sc(C(=O)O)c(OCC(=O)O)c7Cl)c6)CC5(C)C)c4)CC3)cc21` (stereo partly drawn) [Example 179, 3-(carboxymethoxy)-4-chloro-5-(3-(((4R)-1-((3-(2-(1-(1-(2,6-dioxopiperidin-3-yl)-3-methyl-2-oxo-2,3-dihydro-1H-benzo[d]imidazol-5-yl)-4-hydroxypiperidin-4-yl)acetamido)benzyl)sulfonyl)-2,2-dimethylpiperidin-4-yl)amino)phenyl)thiophene-2-carboxylic acid], the DC50 (on PTPN2 (B16F10.4 cells); in assay [1]) was 200 to 1000 nM in each case.

Turning to `CC1(C)C[C@@H](Nc2cccc(-c3sc(C(=O)O)c(OCC(=O)O)c3Cl)c2)CCN1S(=O)(=O)Cc1cccc(NC(=O)CN2CCC(c3ccc4c(c3)oc(=O)n4C3CCC(=O)NC3=O)CC2)c1` (stereo partly drawn) [Example 70, 3-(Carboxymethoxy)-4-chloro-5-[3-[[(4S)-1-[[3-[[2-[4-[3-(2,6-dioxo-3-piperidyl)-2-oxo-1,3-benzoxazol-6-yl]-1-piperidyl]acetyl]amino]phenyl]methylsulfonyl]-2,2-dimethyl-4-piperidyl]amino]phenyl]thiophene-2-carboxylic acid], the results for the 50% degradation concentration (DC50) (on PTPN2 (B16F10.4 cells); in assay [1]) were 200 to 1000 nM and 50 to 200 nM, respectively.

As to `Cc1cc2cc(C3CCN(C(=O)Nc4cccc(CS(=O)(=O)N5CC[C@H](Nc6cccc(-c7sc(C(=O)O)c(OCC(=O)O)c7Cl)c6)CC5(C)C)c4)CC3)ccc2n1C1CCC(=O)NC1=O` (stereo partly drawn) [Example 208, 3-(carboxymethoxy)-4-chloro-5-[3-[[(4S)-1-[[3-[[4-[1-(2,6-dioxo-3-piperidyl)-2-methyl-indol-5-yl]piperidine-1-carbonyl]amino]phenyl]methylsulfonyl]-2,2-dimethyl-4-piperidyl]amino]phenyl]thiophene-2-carboxylic acid], the DC50 (on PTPN2 (B16F10.4 cells); in assay [1]) was 200 to 1000 nM throughout.

Consider `Cn1c(=O)n(C2CCC(=O)NC2=O)c2ccc(N3CC4(CN(C(=O)Nc5cccc(CS(=O)(=O)N6CC[C@H](Nc7cccc(-c8sc(C(=O)O)c(OCC(=O)O)c8Cl)c7)CC6(C)C)c5)C4)C3)cc21` (stereo partly drawn) [Example 140, 3-(carboxymethoxy)-4-chloro-5-[3-[[(4S)-1-[[3-[[6-[1-(2,6-dioxo-3-piperidyl)-3-methyl-2-oxo-benzimidazol-5-yl]-2,6-diazaspiro[3.3]heptane-2-carbonyl]amino]phenyl]methylsulfonyl]-2,2-dimethyl-4-piperidyl]amino]phenyl]thiophene-2-carboxylic acid], for which the results for the half-maximal degradation concentration (DC50) (at PTPN2 (B16F10.4 cells); in assay [1]) were 50 to 200 nM and < 50 nM, respectively.

With `Cn1c(=O)n(C2CCC(=O)NC2=O)c2ccc(C3CCN(CC(=O)Nc4cccc(CS(=O)(=O)N5CCC(Nc6cccc(-c7sc(C(=O)O)c(OCC(=O)O)c7Cl)c6)CC5(C)C)c4)CC3)cc21` [Example 69, 3-(carboxymethoxy)-4-chloro-5-[3-[[(4S)-1-[[3-[2-[4-[1-(2,6-dioxo-3-piperidyl)-3-methyl-2-oxo-benzimidazol-S-yl]-1-piperidyl]acetyl]amino]phenyl]methylsulfonyl]-2,2-dimethyl-4-piperidyl]amino]phenyl]thiophene-2-carboxylic acid], the 50% degradation concentration (DC50) on PTPN2 (B16F10.4 cells) was 50 to 200 nM; in assay [1] it was < 50 nM.
